Data as given in article PMC9824296, “Functional Characterization of Three Diterpene Synthases Responsible for Tetracyclic Diterpene Biosynthesis in Scoparia dulcis” (Plants, 2022).

Columns and labels:
OsKSL4 = target: T1, OsKSL4 (Oryza sativa, UniProt Q0JEZ8); assay: GC-MS of n-hexane extract of recombinant E. coli cultures; assay type: cell-based; conditions: reference enzyme; syn-CPP supplied by co-expressed SdCPS2 or OsCPS4 with SdGGPPS; 16 °C; product 7
T1 construct: gene KSL4; in pET28b (NcoI/NotI), expressed in E. coli C41
T1 sequence (Q0JEZ8 57-842): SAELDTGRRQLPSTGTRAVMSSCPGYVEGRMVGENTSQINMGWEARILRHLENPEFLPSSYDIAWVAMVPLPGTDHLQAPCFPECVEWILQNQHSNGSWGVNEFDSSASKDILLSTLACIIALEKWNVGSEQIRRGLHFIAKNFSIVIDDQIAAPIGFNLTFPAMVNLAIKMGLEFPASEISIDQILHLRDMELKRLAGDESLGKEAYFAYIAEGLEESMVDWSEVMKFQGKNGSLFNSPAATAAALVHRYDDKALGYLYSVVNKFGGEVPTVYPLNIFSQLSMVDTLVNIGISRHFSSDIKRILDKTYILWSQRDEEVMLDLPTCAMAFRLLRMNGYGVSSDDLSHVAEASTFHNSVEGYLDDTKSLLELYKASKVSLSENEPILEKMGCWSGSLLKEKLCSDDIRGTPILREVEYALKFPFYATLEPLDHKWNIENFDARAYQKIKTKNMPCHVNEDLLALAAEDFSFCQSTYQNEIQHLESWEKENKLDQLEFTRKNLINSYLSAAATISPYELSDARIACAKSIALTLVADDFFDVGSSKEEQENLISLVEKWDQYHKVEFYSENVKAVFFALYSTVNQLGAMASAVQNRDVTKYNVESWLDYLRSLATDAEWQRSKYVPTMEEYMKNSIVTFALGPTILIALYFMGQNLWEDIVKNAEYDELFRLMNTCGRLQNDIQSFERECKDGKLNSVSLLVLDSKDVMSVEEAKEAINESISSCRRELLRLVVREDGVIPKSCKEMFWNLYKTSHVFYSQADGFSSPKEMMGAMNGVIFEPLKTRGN

SdCPS2 = target: T2, SdCPS2 (Scoparia dulcis, UniProt A0A1U8XUA9); assay: as above; assay type: cell-based; conditions: GGPP supplied by co-expressed SdGGPPS; 16 °C; product seen as dephosphorylated alcohol
T2 construct: gene CPS2; full ORF 2412 bp, 804 residues
T2 sequence (A0A1U8XUA9 81-804): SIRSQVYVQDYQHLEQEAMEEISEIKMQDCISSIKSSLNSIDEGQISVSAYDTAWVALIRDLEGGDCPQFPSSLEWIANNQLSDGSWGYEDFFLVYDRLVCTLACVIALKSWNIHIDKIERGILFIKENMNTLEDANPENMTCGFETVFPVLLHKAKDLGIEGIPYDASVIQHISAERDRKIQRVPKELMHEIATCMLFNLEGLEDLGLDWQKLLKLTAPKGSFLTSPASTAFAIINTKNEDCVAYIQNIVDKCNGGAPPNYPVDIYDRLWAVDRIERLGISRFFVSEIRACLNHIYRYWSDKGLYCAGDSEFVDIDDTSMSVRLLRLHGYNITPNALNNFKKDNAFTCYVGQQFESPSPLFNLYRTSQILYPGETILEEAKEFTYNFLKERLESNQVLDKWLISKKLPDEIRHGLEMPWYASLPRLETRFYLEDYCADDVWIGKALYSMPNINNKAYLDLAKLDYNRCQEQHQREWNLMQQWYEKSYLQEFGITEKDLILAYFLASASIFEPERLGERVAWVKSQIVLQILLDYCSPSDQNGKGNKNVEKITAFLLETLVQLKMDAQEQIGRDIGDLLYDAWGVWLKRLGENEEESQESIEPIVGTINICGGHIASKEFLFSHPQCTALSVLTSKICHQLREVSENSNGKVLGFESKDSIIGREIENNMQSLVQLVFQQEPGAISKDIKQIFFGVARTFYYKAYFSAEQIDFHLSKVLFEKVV

SMILES | GC-MS of n-hexane extract of recombinant E. coli cultures (OsKSL4) | GC-MS of n-hexane extract of recombinant E. coli cultures (SdCPS2)
C=C1CC[C@H]2C(C)(C)CCC[C@]2(C)[C@@H]1CC/C(C)=C/COP(=O)(O)OP(=O)(O)O [compound 3, syn-copalyl diphosphate] | SdCPS2 could be cyclized by OsKSL4, whose substrate is a syn-copalyl diphosphate | –
CC(C)=CCC/C(C)=C/CC/C(C)=C/CC/C(C)=C/COP(=O)(O)OP(=O)(O)O [compound 2, geranylgeranyl diphosphate] | – | The SdCPS2 catalyzed a cyclization reaction from GGPP to syn-CPP
